Data: patent US20250041307A1, “Uses of Bicyclic Compounds for the Treatment of Diseases” (Athira Pharma, Inc., priority 2021, published 2025)

What was measured:
Assay type in all cases: cell-based
HGF/MET system = test: Phospho-MET ELISA; design: key: − indicates that the compound failed to significantly augment MET phosphorylation; + indicates maximum potency at or above 100 nM; ++ indicates maximum potency at or above 10 nM; +++ indicates maximum potency at or above 1 nM; ++++ indicates maximum potency at or above 0.1 nM; settings: HEK293 cells; with 1 ng/mL recombinant HGF; 15 minutes; augmentation of MET phosphorylation (pMET ELISA)
Method: Compounds were screened for potency towards the HGF/MET system using phospho-MET (pMET) ELISA kits (Cell Signaling). pMET levels were detected in samples having low (1 ng/mL) and high (10 ng/mL) concentrations of HGF.
HEK293 cells were prepared by passage into 6-well multi-plates and grown at 37° C. at 5% CO2 in DMEM+10% FBS until approximately 90% confluent. Cells were then starved for at least 8 hours in serum-free growth media.
Exemplary compounds were prepared in DMEM+0.1% FBS, diluted and added to treatment media with 1 ng/mL recombinant HGF protein (R&D Systems). Cells were incubated in triplicate at 37° C. and 5% CO2 for 15 minutes. Samples were then treated with 180 μL ice-cold RIPA (radioimmunoprecipitation assay) buffer and cells were lysed on ice for 15 minutes. Lysates were cleared by centrifugation at 16,000-g for 15 minutes and the supernatant was retained. Samples were normalized using a BCA assay of lysates to determine protein concentrations across the samples.
Between 50 and 100 μg total protein lysate was loaded into ELISA wells in pMET Sandwich ELISA kit (Cell Signaling Catalog #7227C), ensuring equal protein load in each well. The ELISA was processed according to manufacturer's instructions. After color developed, absorbance was read on an optical plate reader at 450 nm.
Potency measurements were determined using peak efficacy by scaling test compound dose treatments along a scale of 1-10 between 1 ng/mL and 10 ng/mL HGF doses according to the following formula: […]
where y is the normalized data-point, x is the raw data point, A is the mean HGF at 1 ng/mL, and B is the mean HGF at 10 ng/mL.

MDCK cells = test: Cell scattering behavior assay; design: key: − indicates that the compound failed to significantly promote cell scattering behavior; + indicates maximum potency at or above 100 nM; ++ indicates maximum potency at or above 10 nM; +++ indicates maximum potency at or above 1 nM; ++++ indicates maximum potency at or above 0.1 nM; settings: with 5 ng/mL HGF, 24 hours, normalized particle count compared to HGF treatment alone
Method: MDCK cells were grown under normal conditions and observed to spontaneously form tight colonies as they proliferate. MDCK cells respond to HGF treatment by moving away from each other (scattering), which is quantified to assess the amount of HGF/MET activation in the cell population. In this experiment, MDCK cells were plated in a 96-well format, treated with HGF and exemplary compounds, fluorescently stained, imaged in large fields, and scattering behavior was quantified. Quantification was determined by analyzing the number of continuous groups of cells compared to the total stained area imaged (normalized particle counts).
MDCK cells were plated at low density in black-walled imaging plates and allowed to attach overnight at 37° C. and 5% CO2 in DMEM+10% FBS. Cells were then starved to 2 hours in DMEM without FBS (“starve media”). Samples containing exemplary compounds were prepared in DMEM without FBS and included 5 ng/mL HGF protein (“treatment media”). A control curve was also prepared for each plate using HGF concentrations of 0, 5, 10, and 20 ng/mL. Starve media was replaced with treatment media and cells were incubated for 24 hours at 37° C. and 5% CO2.
After incubation, cells were fixed by replacing treatment media with cold ethanol and incubating for 20 minutes at 4° C. Cells were then rehydrated by washing with PBS and then with stain solution (fluorescent wheat germ agglutinin; WGA488 at 20 μg/mL in PBS). Cells were incubated with stain solution 30 minutes at room temperature after which stain solution was replaced with fresh PBS.
Fields of cells were imaged using an iCyte high content imager in the green wavelength. Images were converted to binary and analyzed for particle size and particle count. For the purpose of analysis, an individual cell touching no other cells or separated colonies of cells were identified as particles, and particle counts were normalized by the total signal area to account for differences in cell number. […] Compound potency was assessed by statistical increase in normalized particle count compared to HGF treatment alone.

[1] = tested on: Rat primary cortical neuron cultures; test: Protection from neurotoxicity in vitro (Cell Titer-Glo viability); settings: 24 hours, with HGF 5 ng/ml
Method: HGF/MET signaling activation is expected to protect cells, including neurons, from cell death. […] Hydrogen peroxide (H2O2) treatment produces toxic oxidative stress. Bacteria-derived lipopolysaccharide (LPS) treatment induces inflammatory cell death. Treatment with excess glutamate (Glut) produces excitotoxicity in neuron cultures. Treatment with 1-methyl-4-phenylpyridinium (MPP^+) causes cell death by inhibition of mitochondrial function.
Rat primary cortical neuron cultures were grown at 37° C., 5% CO2 in Complete Neurobasal Medium supplemented with B27/GDNF/BDNF containing 10% FBS until maturity and were then seeded in 384-well plate at 5,000 cells/well. Cultures were then treated for 15 minutes with 1 uM, 100 nM, 10 nM, 1 nM, or 0.1 nM of compound 1a. Cells were then subjected to individual conditional insults for 24 hours at the following concentrations: H2O2 at 1 uM, LPS at 1 uM, glutamate at 25 uM, MPP+ at 500 uM. All treatments contained recombinant human HGF (R&D Systems) at a concentration of 5 ng/ml.
To quantify neuroprotection, cell viability was measured with the Cell Titer-Glo Luminescent Cell Viability Assay (Promega, Cat #G7571). Data was normalized to DMSO+HGF control set at 100% cell viability. Statistical analyses for each group (n=4) were performed using one-way ANOVA with Tukey's Multiple comparison test.
Data is reported as statistical significance vs. insult control, with NS=not significant, +=p<0.05, ++=p<0.01, and +++=p<0.001.

SMILES: CCC(C)CN1CC2N(C(=O)c3ccc(Cl)cc3)CCC(=O)N2C(C)C1=O (stereo not shown) [Compound 10, 1-(4-chlorobenzoyl)-6-methyl-8-(2-methylbutyl)hexahydro-4H-pyrazino[1,2-a]pyrimidine-4,7(6H)-dione]
- Potency (HGF/MET system): −
- Potency (MDCK cells): −

SMILES: CC1C(=O)N(CC2CCCC2)CC2N(C(=O)c3ccc(OC(F)F)cc3)CCC(=O)N12 (stereo not shown) [Compound 13]
- Potency (HGF/MET system): −
- Potency (MDCK cells): −

SMILES: CC1C(=O)N(CC2CCCC2)CC2N(C(=O)c3ccc(C(F)(F)F)cc3)CCC(=O)N12 (stereo not shown) [Compound 15]
- Potency (HGF/MET system): −
- Potency (MDCK cells): −

SMILES: CC1C(=O)N(CC2CCC2)CC2N(C(=O)c3ccc(C(F)(F)F)cc3)CCC(=O)N12 (stereo not shown) [Compound 16]
- Potency (HGF/MET system): −
- Potency (MDCK cells): −

SMILES: C=CCCN1CC2N(C(=O)c3ccc(OC(F)F)cc3)CCC(=O)N2C(C)C1=O (stereo not shown) [Compound 18]
- Potency (HGF/MET system): −
- Potency (MDCK cells): −

SMILES: CCCCN1CC2N(C(=O)c3ccc(C(F)(F)F)cc3)CCC(=O)N2C(C)C1=O (stereo not shown) [Compound 21]
- Potency (HGF/MET system): −
- Potency (MDCK cells): −

SMILES: CC(C)CN1CC2N(C(=O)c3ccc(C(F)(F)F)cc3)CCC(=O)N2C(C)C1=O (stereo not shown) [Compound 23]
- Potency (HGF/MET system): −
- Potency (MDCK cells): −

SMILES: CC(C)N1CC2N(C(=O)c3ccc(C(F)(F)F)cc3)CCC(=O)N2C(C)C1=O (stereo not shown) [Compound 24]
- Potency (HGF/MET system): −
- Potency (MDCK cells): −

SMILES: CC1C(=O)N(CCc2ccco2)CC2N(C(=O)c3ccc(OC(F)F)cc3)CCC(=O)N12 (stereo not shown) [Compound 25]
- Potency (HGF/MET system): −
- Potency (MDCK cells): −

SMILES: CC1C(=O)N(CCc2cccs2)CC2N(C(=O)c3ccc(OC(F)F)cc3)CCC(=O)N12 (stereo not shown) [Compound 26]
- Potency (HGF/MET system): −
- Potency (MDCK cells): −

SMILES: CC1C(=O)N(CC2CCCO2)CC2N(C(=O)c3ccc(OC(F)F)cc3)CCC(=O)N12 (stereo not shown) [Compound 27]
- Potency (HGF/MET system): −

SMILES: CC1C(=O)N(CCc2ccccc2)CC2N(C(=O)c3ccc(OC(F)F)cc3)CCC(=O)N12 (stereo not shown) [Compound 28]
- Potency (HGF/MET system): −
- Potency (MDCK cells): −

SMILES: CC1C(=O)N(CCc2ccncc2)CC2N(C(=O)c3ccc(OC(F)F)cc3)CCC(=O)N12 (stereo not shown) [Compound 29]
- Potency (HGF/MET system): −

SMILES: CC1C(=O)N(CCC2CC2)CC2N(C(=O)c3ccc(OC(F)F)cc3)CCC(=O)N12 (stereo not shown) [Compound 31]
- Potency (HGF/MET system): −
- Potency (MDCK cells): −

SMILES: COCCN1CC2N(C(=O)c3ccc(OC(F)F)cc3)CCC(=O)N2C(C)C1=O (stereo not shown) [Compound 32]
- Potency (HGF/MET system): −
- Potency (MDCK cells): −

SMILES: COCCCN1CC2N(C(=O)c3ccc(OC(F)F)cc3)CCC(=O)N2C(C)C1=O (stereo not shown) [Compound 33]
- Potency (HGF/MET system): −
- Potency (MDCK cells): −

SMILES: CC1C(=O)N(CCO)CC2N(C(=O)c3ccc(OC(F)F)cc3)CCC(=O)N12 (stereo not shown) [Compound 34, 1-(4-(difluoromethoxy)benzoyl)-8-(2-hydroxyethyl)-6-methylhexahydro-4H-pyrazino[1,2-a]pyrimidine-4,7(6H)-dione]
- Potency (HGF/MET system): −
- Potency (MDCK cells): −

SMILES: CC1C(=O)N(CCN)CC2N(C(=O)c3ccc(OC(F)F)cc3)CCC(=O)N12 (stereo not shown) [Compound 35, 8-(2-aminoethyl)-1-(4-(difluoromethoxy)benzoyl)-6-methylhexahydro-4H-pyrazino[1,2-a]pyrimidine-4,7(6H)-dione]
- Potency (HGF/MET system): −
- Potency (MDCK cells): −

SMILES: CC1C(=O)N(CCS(C)(=O)=O)CC2N(C(=O)c3ccc(OC(F)F)cc3)CCC(=O)N12 (stereo not shown) [Compound 36]
- Potency (HGF/MET system): −
- Potency (MDCK cells): −

SMILES: CC1C(=O)N(CCC2CCCC2)CC2N(Cc3ccc(OC(F)F)cc3)CCC(=O)N12 (stereo not shown) [Compound 38]
- Potency (HGF/MET system): −

SMILES: C=CCCN1CC2N(Cc3ccc(OC(F)F)cc3)CCC(=O)N2C(C)C1=O (stereo not shown) [Compound 39]
- Potency (HGF/MET system): −
- Potency (MDCK cells): −

SMILES: CC1C(=O)N(CCC2CCC2)CC2N(Cc3ccc(OC(F)F)cc3)CCC(=O)N12 (stereo not shown) [Compound 40]
- Potency (HGF/MET system): −

SMILES: CCCCN1CC2N(Cc3ccc(OC(F)F)cc3)CCC(=O)N2C(C)C1=O (stereo not shown) [Compound 41]
- Potency (HGF/MET system): −
- Potency (MDCK cells): −

SMILES: CCC(C)CN1CC2N(Cc3ccc(C(F)(F)F)c(Cl)c3)CCC(=O)N2C(C)C1=O (stereo not shown) [Compound 43]
- Potency (HGF/MET system): −
- Potency (MDCK cells): −

SMILES: CCC(C)CN1CC2N(Cc3c[nH]c4ccccc34)CCC(=O)N2C(C)C1=O (stereo not shown) [Compound 44]
- Potency (HGF/MET system): −
- Potency (MDCK cells): −

SMILES: CC1C(=O)N(CCC2CCC2)CC2N(Cc3ccc(F)cc3)CCC(=O)N12 (stereo not shown) [Compound 45, 8-(2-cyclobutylethyl)-1-(4-fluorobenzyl)-6-methylhexahydro-4H-pyrazino[1,2-a]pyrimidine-4,7(6H)-dione]
- Potency (HGF/MET system): −

SMILES: CC1C(=O)N(CCC2CCCC2)CC2N(Cc3ccc(F)cc3)CCC(=O)N12 (stereo not shown) [Compound 46, 8-(2-cyclopentylethyl)-1-(4-fluorobenzyl)-6-methylhexahydro-4H-pyrazino[1,2-a]pyrimidine-4,7(6H)-dione]
- Potency (HGF/MET system): −
- Potency (MDCK cells): −

SMILES: CCC(C)CN1CC2N(Cc3ccc(OC(F)F)cc3)CCC(=O)N2C(CF)C1=O (stereo not shown) [Compound 47, 1-(4-(difluoromethoxy)benzyl)-6-(fluoromethyl)-8-(2-methylbutyl)hexahydro-4H-pyrazino[1,2-a]pyrimidine-4,7(6H)-dione]
- Potency (HGF/MET system): −

SMILES: CCC(C)CN1CC2N(Cc3ccc(C(F)(F)F)cc3)CCC(=O)N2C(CF)C1=O (stereo not shown) [Compound 48, 6-(fluoromethyl)-8-(2-methylbutyl)-1-(4-(trifluoromethyl)benzyl)hexahydro-4H-pyrazino[1,2-a]pyrimidine-4,7(6H)-dione]
- Potency (HGF/MET system): −

SMILES: CCC(C)CN1CC2N(Cc3ccc(OC(F)F)cc3)CCC(=O)N2C(CC(N)=O)C1=O (stereo not shown) [Compound 50, 2-(1-(4-(difluoromethoxy)benzyl)-8-(2-methylbutyl)-4,7-dioxooctahydro-2H-pyrazino[1,2-a]pyrimidin-6-yl)acetamide]
- Potency (HGF/MET system): −
- Potency (MDCK cells): −

SMILES: OO [Compound H2O2, Hydrogen peroxide, reference compound]
- Insult effect (% viability vs vehicle) ([1]; 1 uM): 64.23%

SMILES: N[C@@H](CCC(=O)O)C(=O)O [Glutamate, glutamate, reference compound]
- Insult effect (% viability vs vehicle) ([1]; 25 uM): 49.55%
